Data published in patent US20220332726A1, “NITROXIDE DERIVATIVE OF ROCK KINASE INHIBITOR” (VIVAVISION (SHANGHAI) LTD, priority 2020, published 2022).

Molecular target: ROCK2 (Homo sapiens, UniProt O75116)
Test: ROCK2 kinase inhibitor activity test (HTRF)
Type: biochemical
Conditions: ROCK2 1 nM, substrate 500 nM, ATP 6 uM, 1.5 hours at room temperature, read-out: ROCK2 kinase inhibitor activities (IC50)
Protocol: ROCK2 Kinase Inhibitor Activity Test
1) 4× ROCK2 reaction solution, 4×ATP reaction solution, 4× substrate solution, and 4× compound solution were prepared according to experimental requirements.
2) 2.5 μL of 4× kinase solution and 2.5 μL of diluted 4× test compound solutions with different concentration gradients were added to a 384-well plate. 2 replicate wells were provided for each concentration, and an enzyme solution blank control group and a negative control group (DMSO group) were provided at the same time. Centrifugation was performed at 1000 rpm for 1 minute, and the enzyme and the compounds were mixed. 2.5 μL of 4× substrate solution was added to the 384-well plate, centrifugation was performed at 1000 rpm for 1 minute, 2.5 μL of 4× ATP solution was added to the 384-well plate, centrifugation was performed at 1000 rpm for 1 minute to start the enzyme reaction, and incubation was performed at room temperature for 1.5 hours.
The final concentration of each component of the ROCK2 reaction was: ROCK2: 1 nM, substrate: 500 nM, ATP: 6 uM, and the final concentration range of the test compounds was: 100 nM to 5 pM.
3) 4× Streptavidin-XL-665 detection solution was prepared according to experimental requirements.
4) After the enzyme reaction was completed, 5 ul of 4× Streptavidin-XL-665 detection solution was added to each well of the 384-well plate, and centrifugation was performed at 1000 rpm for 1 minute. 5 μL of 4×STK Antibody-cryptate detection antibody solution was added to each well of the 384-well plate, centrifugation was performed at 1000 rpm for 1 minute, and incubation was performed for 1 hour at room temperature.
5) After antibody incubation was completed, the signal value of each well was measured by the HTRF program on an Envision plate reader.
1) Taking the enzyme solution blank control group as 100% inhibition rate and the negative control group (DMSO group) as 0% inhibition rate, the percentage inhibition rate corresponding to each concentration of the test compound was calculated.
2) In the GraphPad Prism software, a nonlinear regression analysis was performed on the logarithm of the concentrations of the test compounds and the corresponding percentage inhibition rates to obtain the half-inhibitory concentrations (IC50) of the test compounds.
The ROCK2 kinase inhibitor activities (IC50) of the compounds detected by this method are as follows: […]

Sequence of ROCK2 (O75116 whole entry): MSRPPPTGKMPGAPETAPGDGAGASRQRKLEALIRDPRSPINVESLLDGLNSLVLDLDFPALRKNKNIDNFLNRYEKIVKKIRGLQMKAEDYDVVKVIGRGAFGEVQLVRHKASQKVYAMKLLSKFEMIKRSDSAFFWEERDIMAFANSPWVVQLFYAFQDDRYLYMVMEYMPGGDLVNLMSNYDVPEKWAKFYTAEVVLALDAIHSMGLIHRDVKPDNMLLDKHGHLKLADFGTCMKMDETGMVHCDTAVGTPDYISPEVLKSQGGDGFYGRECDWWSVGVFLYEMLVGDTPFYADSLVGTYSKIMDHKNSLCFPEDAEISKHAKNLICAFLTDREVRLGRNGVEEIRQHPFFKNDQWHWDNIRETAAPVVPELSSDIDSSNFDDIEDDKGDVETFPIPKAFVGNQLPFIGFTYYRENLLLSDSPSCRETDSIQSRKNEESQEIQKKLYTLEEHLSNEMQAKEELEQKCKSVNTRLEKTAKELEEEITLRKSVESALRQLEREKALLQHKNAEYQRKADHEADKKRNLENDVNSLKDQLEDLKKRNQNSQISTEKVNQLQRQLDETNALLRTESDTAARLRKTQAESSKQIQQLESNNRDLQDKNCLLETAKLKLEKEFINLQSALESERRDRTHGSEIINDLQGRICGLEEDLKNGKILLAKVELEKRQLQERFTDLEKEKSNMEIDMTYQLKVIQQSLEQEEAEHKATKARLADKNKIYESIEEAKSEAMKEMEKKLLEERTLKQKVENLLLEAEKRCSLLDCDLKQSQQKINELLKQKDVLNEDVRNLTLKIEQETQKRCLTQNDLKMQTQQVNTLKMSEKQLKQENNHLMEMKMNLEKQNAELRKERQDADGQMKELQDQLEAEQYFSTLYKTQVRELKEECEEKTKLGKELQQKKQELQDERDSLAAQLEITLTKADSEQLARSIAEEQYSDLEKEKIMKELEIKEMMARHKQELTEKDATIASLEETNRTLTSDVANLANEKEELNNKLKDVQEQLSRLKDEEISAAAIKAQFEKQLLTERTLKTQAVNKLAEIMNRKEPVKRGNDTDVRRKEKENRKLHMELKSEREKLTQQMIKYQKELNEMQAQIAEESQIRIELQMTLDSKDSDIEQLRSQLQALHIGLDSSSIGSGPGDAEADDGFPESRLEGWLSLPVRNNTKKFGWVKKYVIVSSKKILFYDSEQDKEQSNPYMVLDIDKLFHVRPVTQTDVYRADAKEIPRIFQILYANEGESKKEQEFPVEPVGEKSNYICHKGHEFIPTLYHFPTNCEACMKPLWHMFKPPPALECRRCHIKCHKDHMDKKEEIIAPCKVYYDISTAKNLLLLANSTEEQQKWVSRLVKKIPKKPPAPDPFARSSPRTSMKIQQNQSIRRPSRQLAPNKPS

IC50	Compound
2.95 nM	NC[C@@H](C(=O)Nc1cc2c(F)cncc2s1)c1ccc(CO[N+](=O)[O-])cc1 [Example 12, (S)-4-(3-amino-1-((4-fluorothieno[2,3-c]pyridin-2-yl)amino)-1-oxoprop-2-yl)benzyl nitrate]
1.63 nM	NC[C@@H](C(=O)Nc1cc2ccncc2s1)c1ccc(COC(=O)C2CCC(O[N+](=O)[O-])CC2)cc1 (stereo partly drawn) [Example 15, (S)-4-(3-amino-1-oxy-1-(thieno[2,3-c]pyridin-2-ylamino)prop-2-yl)benzyl 4-(nitrooxy)cyclohexane-1-carboxylic acid]
1.86 nM	NC[C@@H](C(=O)Nc1cc2ccncc2s1)c1ccc(COC(=O)c2ccc(CCO[N+](=O)[O-])cc2)cc1 [Example 16, (S)-4-(3-amino-1-oxy-1-(thieno[2,3-c]pyridin-2-ylamino)prop-2-yl)benzyl 4-(2-(nitrooxy)ethyl)benzoate]
5.44 nM	Cc1cc(CCO[N+](=O)[O-])ccc1C(=O)OCc1ccc([C@@H](CN)C(=O)Nc2cc3ccncc3s2)cc1 [Example 17]
4.62 nM	Cc1ccc(CCO[N+](=O)[O-])cc1C(=O)OCc1ccc([C@@H](CN)C(=O)Nc2cc3ccncc3s2)cc1 [Example 18]
1.33 nM	NC[C@@H](C(=O)Nc1cc2ccncc2s1)c1ccc(COC(=O)[C@H]2CC[C@@H](O[N+](=O)[O-])CC2)cc1 [Example 19, 4-((S)-3-amino-1-oxy-1-(thieno[2,3-c]pyridin-2-ylamino)prop-2-yl)benzyl(1s,4R)-4-(nitrooxy)cyclohexane-1-carboxylate]
1.43 nM	NC[C@@H](C(=O)Nc1cc2ccncc2s1)c1ccc(COC(=O)[C@H]2CC[C@H](O[N+](=O)[O-])CC2)cc1 [Example 20, 4-((S)-3-amino-1-oxy-1-(thieno[2,3-c]pyridin-2-ylamino)prop-2-yl)benzyl(1r,4S)-4-(nitrooxy)cyclohexane-1-carboxylate]
1.23 nM	NC[C@@H](C(=O)Nc1cc2ccncc2s1)c1ccc(COC(=O)c2cccc(CO[N+](=O)[O-])c2)cc1 [Example 21, (S)-4-(3-amino-1-oxo-1-(thieno[2,3-c]pyridin-2-ylamino)prop-2-yl)benzyl 3-((nitrooxy)methyl)benzoate]

The remaining lines, values behind:

Compound	IC50
4-((S)-3-amino-1-oxy-1-(thieno[2,3-c]pyridin-2-ylamino)prop-2-yl)benzyl(1s,4R)-4-((nitrooxy)methyl)cyclohexane-1-carboxylic acid [Example 27]	4.62 nM
NCC(C(=O)Nc1ccc2cnccc2c1)c1ccc(CO[N+](=O)[O-])cc1 (stereo not shown) [Example 2, (3-amino-1-(isoquinolin-6-ylamino)-1-oxoprop-2-yl)benzyl nitrate]	5.59 nM
NCC(C(=O)Nc1cc2ccncc2s1)c1ccc(CCO[N+](=O)[O-])cc1 (stereo not shown) [Example 3]	10.8 nM
NC[C@@H](C(=O)Nc1ccc2cnsc2c1)c1ccc(CO[N+](=O)[O-])cc1 [Example 4, (S)-4-(3-amino-1-(benzo[d]isothiazol-6-ylamino)-1-oxoprop-2-yl)benzyl nitrate]	1.78 nM
NCC(C(=O)Nc1cc2ccncc2s1)c1ccc(C(CO[N+](=O)[O-])O[N+](=O)[O-])cc1 (stereo not shown) [Example 5, 1-(4-(3-amino-1-oxo-1-(thieno[2,3-c]pyridin-2-ylamino)prop-2-yl)phenyl)ethane-1,2-dinitrate]	19.2 nM
NC[C@@H](C(=O)Nc1cc2ccncc2s1)c1ccc(COC(=O)C2CC(O[N+](=O)[O-])C2)cc1 (stereo partly shown) [Example 6]	1.3 nM
NCC(C(=O)Nc1cc2ccncc2s1)c1ccc(CCCCO[N+](=O)[O-])cc1 (stereo not shown) [Example 10, 4-(4-(3-amino-1-oxo-1-(thieno[2,3-c]pyridin-2-ylamino)prop-2-yl)phenyl)butyl nitrate]	19.3 nM
NCC(C(=O)Nc1cc2ccncc2s1)c1ccc(OC(CO[N+](=O)[O-])CO[N+](=O)[O-])cc1 (stereo not shown) [Example 14, 2-(4-(3-amino-1-oxo-1-(thieno[2,3-c]pyridin-2-ylamino)propan-2-yl)phenoxy)propane-1,3-dinitrate]	77.3 nM
